Laboratory results published in patent US20230365546A1, “5-SUBSTITUTED INDOLE 3-AMIDE DERIVATIVES, PREPARATION METHOD AND USE THEREOF” (ORIGIANT PHARMACEUTICAL CO., LTD, priority 2020, published 2023).
Where two headings read alike, the source gives them in different places.

What was measured:
TNF α-induced SIRS = assay: TNF α-induced mouse SIRS model; assay type: in vivo; conditions: 40 mg/kg oral once before TNF α 500 μg/kg i.v.
Experimental: TNF α formulated in sterile normal saline was administered at a dose of 500 μg/kg by tail vein injection for modeling. The body temperature of the mice was measured by an infrared electric thermometer. The orally-administrated vehicle was 25% castor oil in ethanol and 75% normal saline. Compounds 94 and 46 and RIPK1 positive compound GSK2982772 were administered orally before modeling with a dose of 40 mg/kg. Body temperature and the survival of mice were recorded every hour and recorded for 24 h and 48 h after 11 h.
This experiment established a TNF α-induced SIRS mouse model to evaluate the in vivo activity of compounds of the present invention. TNF α formulated in sterile normal saline was administered to mice at a dose of 500 μg/kg by tail vein injection for modeling. Since the measurement of rectal temperature would cause mechanical injury to mice and may interfere with the experimental results, an infrared electric thermometer was used to measure the body temperature of mice and the survival condition was observed. Compounds 94 and 46 were administered at a dose of 40 mg/kg once prior to modeling. The Vehicle group was given the corresponding vehicle control.

[1] = test system: RIPK1 autophosphorylation, phosphorylation of RIPK3 and MLKL; assay: Regulation of RIPK1 signaling pathway (Western blot); assay type: cell-based; conditions: TNF α/Smac mimetic/Z-VAD-FMK induced, FIG. 4
Excerpt: TNF α was purchased from PeproTech Inc., Smac mimetic and Z-VAD-FMK was purchased from Selleck Inc., RIPA lysis buffer was purchased from Beyotime Institute of Biotechnology, cocktail was purchased from MedChemExpress (MCE) Limited, PMSF protease inhibitors, sodium dodecylsulfonate SDS, and glycine were purchased from Sigma Inc., acrylamide, tris(hydroxymethyl)aminomethane Tris, ammonium persulfate APS and N,N,N′,N′-tetramethyl ethylenediamine TEMED were purchased from Wuhan Servicebio Technology Co., Ltd.
Extraction of total cellular protein: after the cells were treated by adding the corresponding concentration of Compounds 94 and 46 or blank vehicle to the cell supernatant and induced with TNF α/Smac mimetic/Z-VAD-FMK combination for a certain period of time, the supernatant was discarded, followed by washing three times with pre-cooled PBS or normal saline, then an appropriate volume of RIPA lysis buffer (containing 1% cocktail and 1% PMSF protease inhibitor) was added, the mixture was immediately placed on ice horizontally for lysis of 15 min, then the cell lysis buffer was scraped with a scraper and transferred to a 1.5 ml EP tube, and the cells were disrupted with a sonicator. The tubes were then centrifuged in a low temperature high speed centrifuge (12000 rpm, 15 min) to remove cell debris. […]

HT-29 cells = assay: Protection against programmed necrosis of HT-29 cells (TNF α/Smac mimetic/Z-VAD-FMK, CCK8); assay type: cell-based; conditions: Homo sapiens
RIPK1 = RIPK1 (Homo sapiens (Human), UniProt Q13546); assay: In vitro kinase assay (Eurofins Kinase Profiler), IC50; assay type: biochemical; conditions: 0.001-10 μM, read-out: RIPK 1 (IC50)
Chain of RIPK1 (Q13546 whole entry): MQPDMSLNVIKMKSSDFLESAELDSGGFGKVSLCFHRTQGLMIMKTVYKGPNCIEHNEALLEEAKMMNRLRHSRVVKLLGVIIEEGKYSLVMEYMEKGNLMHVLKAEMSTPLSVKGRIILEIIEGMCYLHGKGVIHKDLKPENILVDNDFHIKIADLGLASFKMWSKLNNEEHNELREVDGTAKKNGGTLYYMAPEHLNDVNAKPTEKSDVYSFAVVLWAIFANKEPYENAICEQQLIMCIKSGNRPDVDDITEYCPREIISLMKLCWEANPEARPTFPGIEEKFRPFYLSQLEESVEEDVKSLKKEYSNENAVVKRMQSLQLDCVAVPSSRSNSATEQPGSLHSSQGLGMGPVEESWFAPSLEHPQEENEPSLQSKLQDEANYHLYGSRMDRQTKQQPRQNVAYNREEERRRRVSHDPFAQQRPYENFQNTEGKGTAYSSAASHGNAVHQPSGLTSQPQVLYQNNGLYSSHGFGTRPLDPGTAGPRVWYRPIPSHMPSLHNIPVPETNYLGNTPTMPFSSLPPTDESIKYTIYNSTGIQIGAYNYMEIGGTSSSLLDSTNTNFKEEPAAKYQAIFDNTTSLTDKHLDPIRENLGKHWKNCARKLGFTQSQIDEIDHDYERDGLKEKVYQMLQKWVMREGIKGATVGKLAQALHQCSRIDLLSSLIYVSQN
Experimental: In vitro kinase assays were conducted using Kinase Profiler services provided by Eurofins. The experimental method was as follows: the small molecule compound to be tested (0.001-10 μM), the protein kinase to be tested were incubated with a buffer containing substrate, 10 mM magnesium acetate, and [γ-^33P-ATP], the reaction was started by adding Mg\TPmix, after incubation for a period of time at room temperature, a 3% phosphate solution was added to the buffer to stop the reaction. Subsequently, 10 μL of the reaction mixture was quantitatively pipetted onto P30 filter paper, which was washed three times with 75 mM phosphate solution and then once with methanol. The P30 filter paper was air-dried and scintillation fluid was added for scintillation counting.

For C[C@H](NC(=O)c1cn(C)c2ccc(-c3ccc4nc(NC(=O)C5CC5)sc4c3)cc12)c1cccc(F)c1 [Compound 46], which Overall mortality (TNF α-induced SIRS; compared with Vehicle group) is on record?
The Overall mortality was “significantly reduced”.

And the “Body temperature of mice” value (TNF α-induced SIRS; within 11 h)?
Its value is “relatively normal”.

And the “Effect on necrotic signaling pathway (RIPK1 autophosphorylation, RIPK3 and MLKL phosphorylation)” value [1]?
The value was “affected the phosphorylation of RIPK3 and MLKL downstream of RIPK1 by inhibiting its autophosphorylation”.

And the EC50 (HT-29 cells; TNF α/Smac mimetic/Z-VAD-FMK induced 24 h, CCK8, read-out: HT-29 (EC50))?
Its EC50 is under 1 nM.

And the EC50 (HT-29 cells; TSZ-induced, FIG. 3, read-out: EC50 value, programmed necrosis model of HT-29)?
Its EC50 is 0.07 nM.

And the IC50 (RIPK1)?
Its IC50 is 10 to 100 nM.
